Experimental findings from patent US20230265167A1, “COMPOSITIONS HAVING NEUROREGENERATIVE APPLICATIONS” (GRIFOLS WORLDWIDE OPERATIONS LIMITED, priority 2020, published 2023) are described below.

“Also recorded” adds a separate entry of the source. Bounds are passed on as bounds.

The subject of series [1] is C57BL/6J mice with transient MCAo. The series can be described thus: Novel object recognition test (NORT) after transient MCAo. Type of series: in vivo, mouse. Conditions: FIG. 10C, at least two weeks, vs saline. On the procedure:
(§1) C57BL/6J mice (ca. 20 g) were anaesthetized under isoflurane and, after dissection, a 6.0 silicon-coated monofilament suture was inserted into the external carotid artery to occlude the middle cerebral artery (MCAo). The occlusion was carried out for 60 minutes under temperature control.
(§2) Only animals with a ‘neuroscore’ of 4 or greater were considered for further testing (n=8-10 animals/group). At six hours post-occlusion, mice were injected daily with 350 mg/kg of Apo-transferrin (i.p.) or an equal volume of saline for a total of seven days, as well as with 50 mg/kg Bromodeoxyuridine (BrdU; Sigma-Aldrich Chemical, St. Louis, Mo.), both articles delivered by intraperitoneal administration. Weight changes were monitored daily.
(§3) Mice were prepared as indicated in Example 9 above and were subjected to assessments at 3 days and 1, 2, 3, 4 weeks post-MCAo, as indicated (n=8-10 animals/group). Motor coordination (i.e. equilibrium behavior and locomotor ability as a function of cortico-striatal function) was assessed using a rotarod test. Learning and memory capacity were measured using the NORT (novel object recognition test; for example, Anglada-Huguet et al., 2014, Molecular Neurobiology, vol. 49, pages 784-795; Denninger et al., 2018, J. Vis. Exp., vol. 141, e58593).
The time that it takes an animal to fall (Latency to fall) from the rotarod is shown vs time after MCAo. The motor skills of the mice reflect those of the neuroscore in FIG. 10A, with an increased rate of improvement in motor/balance skills, as measured by the amount of time animals stayed on the rotarod apparatus. […] The Discrimination (%) is a description of an animal's memory, as measured by the percentage of time in which an animal investigates newly presented objects compared to the time they investigate previously presented objects. Animals with better cognition and memory spend more time with the novel object due to memories of the object previously presented to the animal; this is shown as increased % Discrimination.

For series [2] the test system is unchanged. Briefly: Rotarod test after transient MCAo. The class given is in vivo, mouse. Conditions: FIG. 10B, vs saline. On the procedure: as §1, §2, §3
The time that it takes an animal to fall (Latency to fall) from the rotarod is shown vs time after MCAo. […]

Series [3] in a line: Iron saturation by ICP-AES. The class given is physicochemical. The source says:
The skilled person will appreciate that transferrin iron saturation levels can be readily determined without undue burden by quantifying the total iron levels in a sample having a known transferrin concentration. The total iron levels in sample can be measured by any one of a number of methods know by those of skill in the art. Suitable examples include: • Colorimetric assays—Iron is quantitated by measuring the intensity of the violet complex formed in the reaction between ferrozine and Fe^2+ in acetate buffer at 562 nm. Thiourea or other chemicals can be added to complex contaminant metals such Cu^2+, which can also bind with ferrozine and yield falsely elevated iron values. See Ceriotti et al., Improved direct specific determination of serum iron and total iron-binding capacity Clin Chem. 1980, 26(2), 327-31, the contents of which are incorporated herein by reference. • Inductively Coupled Plasma Atomic Emission Spectroscopy (ICP-AES)—is an emission spectroscopy technique that quantifies the mass percentage of metals in a sample. ICP-AES is based on the excitation of metal atoms/ions in the sample using a plasma (an ionized gas consisting of positive ions and free electrons) and analyzing the emission wavelength of the electromagnetic radiation, which is typical of that particular metal. Even though the technique is a standard analytical technique within common general knowledge of the skilled person, further information on ICP-AES can be found in Manley et al., Simultaneous Cu-, Fe-, and Zn-specific detection of metalloproteins contained in rabbit plasma by size-exclusion chromatography-inductively coupled plasma atomic emission spectroscopy. J Biol Inorg Chem. 2009, 14, 61-74, the contents of which are incorporated herein by reference.
The preferred method of determining the iron content of a sample for the purposes of the therapeutic method of the present invention is ICP-AES. The iron saturation of transferrin is then calculated based on the transferrin protein concentration, total iron content of the sample, and the fact that wild type transferrin has two iron-binding sites. Wild type human transferrin (molecular weight 79,750) can bind two iron atoms such that a sample containing 1 g of transferrin would be 100% saturated by 1.4 mg of iron.
Protein purity was determined by SDS-PAGE. Iron saturation levels were determined using ICP-AES in accordance with the procedures outlined in Manley et al., J Biol Inorg Chem (2009) 14:61-74, the contents of which are incorporated herein by reference.

Turning to “apo-transferrin: iron-free form of transferrin protein, obtained and purified from pooled human plasma”, the “learning recognition / Discrimination (%) in NORT” value was “higher cognition” in series [1], “increases learning recognition functions” in series [1] (listed as ApoTf) and “higher ‘percent Discrimination’” in series [1] (listed as apoTf). The “motor and balance skills (Latency to fall from rotarod)” value in series [2] was “better motor skills; also recorded: increased motor and balance skills”; in series [2] (listed as apoTf), “better overall abilities to remain on the rotarod”. Besides, the “Iron Saturation (%)” value in series [3] is below 0.3%.
